Positions count from the first letter of the chain named. Positions of bridges follow the written chain, without caps; N, C: chain ends. Non-standard residues stand in square brackets, D forms with d. Residues, ends and D or L forms follow the SMILES beside them. *: point of attachment. 5FAM = O=C1OC2(c3ccc(O)cc3Oc3cc(O)ccc32)c2ccc(C(=O)*)cc21; 6FAM = O=C1OC2(c3ccc(O)cc3Oc3cc(O)ccc32)c2cc(C(=O)*)ccc21; S5 = C=CCCC[C@](C)(N)C(=O)O
Key:
HeLa cells [1] = conditions: live HeLa cells, SiR-tubulin, 5 μM peptide, 4 h pre-incubation, imaged 10 h every 5 min; 246–297 mitotic events over 3 imaging sessions
Experimental: HeLa, MDA-MB-468 and MDA-MB-231 cells were plated in a 35 mm imaging dish (Ibidi) in complete growth medium. Prior to imaging, the DMEM or RPMI growth medium was replaced with Optimem medium (Gibco) supplemented with 10% FBS. Added to the medium was SiR-tubulin (Spirochrome) at 30 nM concentration, SPY555-DNA at 1:18000 dilution; both live-cell imaging probes were used at lower than recommended concentrations to avoid possible effects on mitosis. […] The Lattice Lightsheet 7 microscope was fitted with a 10x/0.4NA water immersion illumination lens, a 48x/1.0NA detection lens and a PCO.edge 4.2 sCMOS camera. Each field of view of approximately 500 μm × 297 μm × 33 μm was imaged at 0.2 μm lightsheet interval with the 640 nm channel (15 ms exposure, 15% laser power) and 561 nm channel (15 ms exposure, 10% laser power) over a 10 h period with scans taken every 5 min. To create movies and frame sequences the cell were imaged every 2.5 min for 5 h. Results were processed using Zeiss LLS software and Fiji (v.2.9.0).

[2] = target: T1, biotinylated Avi-tagged ankle region of clathrin (aa 358–574) (Homo sapiens, UniProt Q00610); assay: SPR binding kinetics; conditions: Biacore 1K+, average ± SD of duplicates; for kon: CHC aa 358–574 on SA chip, 60 s injection, read-out: ka (SPR)
T1 construct: The biotinylated Avi-tagged ankle region of clathrin (aa 358–574) was immobilised; made in house
T1 sequence (Q00610 358-574 limits assumed): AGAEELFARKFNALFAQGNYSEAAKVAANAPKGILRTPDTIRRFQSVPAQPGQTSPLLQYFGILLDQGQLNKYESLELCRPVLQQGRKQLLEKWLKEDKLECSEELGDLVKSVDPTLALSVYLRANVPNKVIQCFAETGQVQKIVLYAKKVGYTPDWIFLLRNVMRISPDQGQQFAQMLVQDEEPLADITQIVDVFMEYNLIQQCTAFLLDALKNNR
Experimental: The SPR assays were performed using a Biacore 1K+ instrument (Cytiva Life Sciences). The biotinylated Avi-tagged ankle region of clathrin (aa 358–574) was immobilised on the surface of a Streptavidin SA chip (Cytiva Life Sciences) to the density of 150 RU. The increasing concentrations of peptide analytes were diluted in the running buffer (20 mM HEPES pH 7.5, 150 mM NaCl, 5 mM DTT, 0.05% Tween-20) and injected at a flow rate of 30 μL/min). […] Each concentration was injected at 30 μL/min for 60 s. […] The Biacore evaluation software was used to calculate equilibrium KD values as well as ka and kd constants using 1:1 steady-state affinity model implemented into the BIAevaluation 3.0 software.

HeLa cells [3] = assay: Confocal microscopy of fixed HeLa cells (peptide localisation, endogenous TACC3 and CHC on mitotic spindle); assay type: cell-based
Experimental: HeLa cells grown on glass coverslips in complete growth medium and treated with 2.5, 5 and 10 μM FAM-peptides for 5 h. Cells were washed with PBS and fixed with PTEMF (20 mM PIPES, pH 6.8, 10 mM EGTA, 1 mM MgCl2, 0.2% Triton X-100 and 4% paraformaldehyde) for 10 min and permeabilized at room temperature in 0.5% Triton-X100 in PBS for 10 min. Cells were blocked in 3% BSA in PBS for 1 h and incubated overnight with primary antibodies diluted in 3% BSA/PBS buffer followed by 1 h incubation with secondary antibodies. Primary antibodies were as follows: mouse anti-CHC (X22; GTX22731; 1:250), rabbit anti-TACC3 (ab134154, Abcam; 1:500). Secondary antibodies were anti-mouse IgG Atto 594 (1:250, 76085, Merck) and anti-rabbit IgG Atto 647N antibody (1:250, 40839, Merck). Coverslips were mounted with ProLong Gold antifade reagent with DAPI (Invitrogen). Peptides were imaged using their 6-FAM fluorescent tag with a 488 nm argon laser. Imaging was performed on a Zeiss LSM880 upright confocal microscope using a 40x/1.4 NA oil objective. Z-stacks comprising of 9–13 × 1 μm sections were acquired. Images were captured using identical settings. The region of interest (~0.6 μm^2) was quantified in three different locations over the spindle, cytoplasm and in the non-cell region of background. Images were analysed using Fiji (v.2.9.0).

[4] = target: T2, CHC^ankle (clathrin heavy chain aa 358–574) (Homo sapiens, UniProt Q00610); assay: Fluorescence polarisation direct binding assay, CHC ankle WT
T2 construct: we used the minimal ankle region of CHC (CHC^ankle, aa 358–574); GST (TEV-cleavable); made in house
T2 sequence (Q00610 358-574): T1 sequence (Q00610 358-574 limits assumed)
Experimental: (§1) Binding affinity of CHC and TACC3 peptides was calculated based on fluorescence polarization assays performed as reported previously, using linear and stapled FAM-TACC3 peptides corresponding to aa 549–570 of human TACC3 protein. Linear peptides were purchased from PPR (Fareham, UK); Alta Bioscience (Redditch, UK); Biomatik Corporation (Ontario, Canada). Stock solutions of peptides were 10 mM in DMSO. Binding assays were performed in triplicate in the binding buffer 20 mM HEPES pH 7.5, 150 mM NaCl, 5 mM DTT, 0.05% Tween-20. Data analysis was performed using a one-site specific binding model in Prism (GraphPad software, v10.1.0).

K507A-CHC^ankle = target: T3, K507A-CHC^ankle (Homo sapiens, UniProt Q00610, K507A); assay: Fluorescence polarisation direct binding assay, K507A-CHC ankle; conditions: direct binding FP, FAM labelled peptides; CHC with K507A substitution; mean of three experiments ± SD; read-out: KD, stapled and control peptides, CHC K507A
T3 construct: we used the minimal ankle region of CHC (CHC^ankle, aa 358–574); GST (TEV-cleavable); made in house
T3 sequence (Q00610 358-574 K507A): T1 sequence (Q00610 358-574 limits assumed) with K150A
Source text: CHC constructs for binding studies were produced during previous work by cloning the respective CHC coding sequence of Q00610 (CLH1_HUMAN) aa 1–574 and 358–574, respectively) into a modified pGEX vector containing a TEV-cleavable GST tag[26]. Point mutations K506A and K507A were introduced by site-directed mutagenesis. GB1-TACC3 is the small protein GB1[47] fused to a short, disordered peptide sequence from human TACC3 (Q9Y6A5, aa 545–573). This hybrid sequence was cloned into a pETM6T1 vector which contains a TEV protease-cleavable N-terminal His-NusA tag.
as §1

kon [2] [M⁻¹ s⁻¹]	fold increase in binding affinity for CHC compared to WT / parental TACC3 sequence ([4]; compared to the WT (parental) TACC3 peptide)	Kd (K507A-CHC^ankle) [µM]	Kd ([2]; CHC aa 358–574 on SA chip 150 RU, 20 mM HEPES pH 7.5, 150 mM NaCl, 5 mM DTT, 0.05% Tween-20, 30 μL/min) [µM]	Kd ([4]; direct binding FP, FAM labelled peptides, CHC WT (385–574), mean of three experiments ± SD, read-out: KD, stapled and control peptides, CHC WT) [µM]	Structure (SMILES)	median duration of mitosis from NEBD to anaphase onset (HeLa cells [1]) [min]	colocalisation with endogenous TACC3 on the mitotic spindle (HeLa cells [3]; fixed mitotic HeLa cells, FAM-labelled peptides, confocal microscopy)	reduction of endogenous TACC3 levels in the mitotic spindle (HeLa cells [3]; metaphase HeLa cells, peptide 2.5, 5 and 10 μM, 5 h, compared to the negative control SP TACC3 peptide)
					CC(C)C[C@H](NC(=O)[C@H](C)NC(=O)[C@@H]1CCCN1C(=O)[C@H](CC(=O)O)NC(=O)[C@H](C)NC(=O)[C@H](CCC(=O)O)NC(=O)[C@]1(C)CCCC=CCCC[C@](C)(NC(=O)[C@H](CCCCN)NC(=O)[C@H](CCCNC(=N)N)NC(=O)[C@H](CC(C)C)NC(=O)[C@H](C)NC(=O)[C@H](CO)NC(=O)[C@H](CCC(=O)O)NC(=O)[C@H](CCCCN)NC(=O)c2ccc3c(c2)C2(OC3=O)c3ccc(O)cc3Oc3cc(O)ccc32)C(=O)N[C@@H](CCC(=O)O)C(=O)N[C@@H](CC(C)C)C(=O)N[C@@H](CC(C)C)C(=O)N1)C(=O)N[C@@H](CCCNC(=N)N)C(=O)N[C@@H](CC(=O)O)C(=O)N[C@@H](CO)C(N)=O [Neg. control SP TACC3] (6FAM-KESALRK[S5]ELL[S5]EADPALRDS-NH2; staple 8-12)	55		
1.8e+06	over a hundred-fold higher affinity				CC(C)C[C@H](NC(=O)[C@H](C)NC(=O)[C@H](CO)NC(=O)[C@H](CCC(=O)O)NC(=O)[C@H](CCCCN)NC(=O)c1ccc2c(c1)C(=O)OC21c2ccc(O)cc2Oc2cc(O)ccc21)C(=O)N[C@@H](CCCNC(=N)N)C(=O)N[C@@H](CCCCN)C(=O)N[C@@]1(C)CCCC=CCCC[C@@](C)(C(=O)N[C@@H](CCC(=O)O)C(=O)N[C@@H](Cc2ccccc2)C(=O)N[C@@H](CC(=O)O)C(=O)N2CCC[C@H]2C(=O)N[C@@H](CC(C)C)C(=O)N[C@@H](Cc2ccccc2)C(=O)N[C@@H](CCCNC(=N)N)C(=O)N[C@@H](CC(=O)O)C(=O)N[C@@H](CO)C(N)=O)NC(=O)[C@H](CC(C)C)NC(=O)[C@H](CC(C)C)NC(=O)[C@H](CCC(=O)O)NC1=O [Opt SP TACC3] (5FAM-KESALRK[S5]ELL[S5]EFDPLFRDS-NH2; staple 8-12)		colocalised with endogenous TACC3 on the mitotic spindle	~ 20%
140000		3.7 ± 1	2.8 ± 0.2	34 ± 5	CC(C)C[C@H](NC(=O)[C@H](C)NC(=O)[C@H](CO)NC(=O)[C@H](CCC(=O)O)NC(=O)[C@H](CCCCN)NC(=O)[C@H](Cc1ccccc1)NC(=O)c1ccc2c(c1)C(=O)OC21c2ccc(O)cc2Oc2cc(O)ccc21)C(=O)N[C@@H](CCCNC(=N)N)C(=O)N[C@@H](CCCCN)C(=O)N[C@@]1(C)CCCC=CCCC[C@@](C)(C(=O)N[C@@H](CCCCN)C(=O)N[C@@H](Cc2ccccc2)C(=O)N[C@@H](CC(=O)O)C(=O)N2CCC[C@H]2C(=O)N[C@@H](CC(C)C)C(=O)N[C@@H](CC(C)C)C(=O)N[C@@H](CCCNC(=N)N)C(=O)N[C@@H](CC(=O)O)C(=O)N[C@@H](CO)C(N)=O)NC(=O)[C@H](Cc2ccc(O)cc2)NC(=O)[C@H](CC(C)C)NC(=O)[C@H](CCC(=O)O)NC1=O [SP4E] (5FAM-FKESALRK[S5]ELY[S5]KFDPLLRDS-NH2; staple 9-13)			
